In patent US20240082237A1, “PHARMACEUTICAL COMPOSITIONS COMPRISING A DEXTROMETHORPHAN COMPOUND AND QUINIDINE FOR THE TREATMENT OF AGITATION IN DEMENTIA” (priority 2014, published 2024):
Like-named read-outs stand apart in the source and are kept apart here.

What was measured:
[1] = target: N-methyl-D-aspartate (NMDA) receptor; conditions: weak uncompetitive antagonist; cited from earlier work
sigma-1 = sigma-1 (Homo sapiens, UniProt Q99720); conditions: sigma-1 agonist; cited from earlier work
[2] = target: T1, norepinephrine transporter (Homo sapiens, UniProt P23975); conditions: affinity; cited from earlier work
T1 sequence (P23975 whole entry, species assumed): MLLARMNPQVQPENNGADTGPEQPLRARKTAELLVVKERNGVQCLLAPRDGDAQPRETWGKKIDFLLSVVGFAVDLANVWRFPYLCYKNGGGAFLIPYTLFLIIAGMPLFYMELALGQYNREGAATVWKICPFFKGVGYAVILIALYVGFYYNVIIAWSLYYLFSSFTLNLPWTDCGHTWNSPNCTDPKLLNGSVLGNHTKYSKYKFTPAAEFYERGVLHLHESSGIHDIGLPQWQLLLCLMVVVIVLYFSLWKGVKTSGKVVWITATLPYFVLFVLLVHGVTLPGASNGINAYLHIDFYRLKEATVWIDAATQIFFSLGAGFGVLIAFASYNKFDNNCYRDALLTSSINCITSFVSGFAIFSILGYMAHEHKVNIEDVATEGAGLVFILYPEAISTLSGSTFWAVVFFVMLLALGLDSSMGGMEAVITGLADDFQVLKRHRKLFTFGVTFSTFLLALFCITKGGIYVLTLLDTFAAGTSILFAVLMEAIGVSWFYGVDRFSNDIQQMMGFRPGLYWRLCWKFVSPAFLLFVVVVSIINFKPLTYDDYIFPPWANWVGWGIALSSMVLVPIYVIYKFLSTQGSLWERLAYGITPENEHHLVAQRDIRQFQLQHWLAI

[3] = target: T1, norepinephrine transporter; conditions: inhibits uptake of norepinephrine; cited from earlier work
clinical [4] = experiment: clinical
From the text: (§1) Subjects attended a Screening visit at the clinic within 14 days prior to enrolment (Day 1). If eligible, the subjects were enrolled on Day 1 to one of 4 Groups (Day 1 occurred on different days for different groups to ensure the availability of beds in the units for those dates). Subjects returned to the clinic daily for out-patient dosing until the second day of (morning) PK sampling (this day differed between treatment groups). After the second day (morning) PK sampling, subjects were admitted to the clinic that night before (full) PK sampling the next day. Subjects stayed in the in-patient unit until the last day of PK sampling (length of time differed between treatment groups based on the amount of time for the study medications to reach steady state).
(§2) Samples were collected for PK evaluation up to 36 hours post the last dose of study medication.
(§3) Paroxetine 20 mg tablets. Duloxetine 20 mg capsules. Subjects received study medication as per the study schedule, provided above in Methodology.
(§4) Each dose (consisting of one capsule/tablet) was administered orally with 240 mL of room temperature water. Morning doses were preceded by an overnight fast (i.e., at least 8 hours) from food (not including water) and evening doses were preceded by at least a 2-hour fast from food. All doses were followed by a fast from food (not including water) for at least 2 hours post-dose.
(§5) Pre-dose and 0.5, 1, 2, 3, 4, 6, 8, and 12 hours after the morning dose on the last day of single medication dosing. For Group 1 only, as paroxetine was administered once a day, an additional sample was taken at 24 hours after the last day of single dosing (prior to the first combined dosing).
(§6) Pre-dose and 0.5, 1, 2, 3, 4, 6, 8, 12, 24, and 36 hours after the morning dose on the last day of combined dosing
(§7) Prior to the morning dose on Day 4 (for Groups 2 and 4 only) and on each of the 2 days prior to the last day of single medication dosing and the last day of combined dosing.
(§8) Mean plasma concentration-time profiles were plotted by treatment on linear and semi-logarithmic scales. In addition, non-compartmental PK parameters were derived. […] The point estimates and confidence limits were determined using the log transformed data and then transformed back to the original scale. The analysis was performed using analysis of variance with the terms Subject and Treatment.

healthy subjects = experiment: Example 6 Phase 1 drug interaction study: safety (adverse events); assay type: in vivo, human
Description: Safety was evaluated in all subjects throughout the study and included adverse event (AE) reporting, electrocardiograms (ECGs), laboratory evaluations, physical examinations, and vital signs. The Columbia-Suicide Severity Rating Scale (C-SSRS) was used to prospectively assess suicidal ideation and behavior throughout the study.
Safety: Safety was evaluated in all subjects throughout the study and included adverse event (AE) reporting, electrocardiograms (ECGs), laboratory evaluations, physical examinations, and vital signs. The Columbia-Suicide Severity Rating Scale (C-SSRS) was used to prospectively assess suicidal ideation and behavior throughout the study as part of the safety assessments per the FDA guidance, “Suicidal Ideation and Behavior: Prospective Assessment of Occurrence in Clinical Trials.”
Safety: Safety variables, including incidence of adverse events, vital signs, ECG parameters, and clinical laboratory results, were summarized by treatment. Responses to the C-SSRS questionnaire were listed for each subject. Individual subject profiles were presented for any questions with an abnormal response.

clinical [5] = experiment: clinical; remark: listed apart in the source
From the text: as §1, §2, §3, §4, §5, §6, §7, §8

[6] = Toxicology studies with d6-DM and 13-week toxicity study with d6-DM/Q; assay type: in vivo; conditions: at comparable exposures; adverse clinical signs associated with CNS effects
[7] = tested on: receptors responsible for modulation of glutamate, monoamine, sigma-1, and nicotinic cholinergic pathways; experiment: Pharmacology studies with deuterated DM
CYP2D6 [8] = target: T2, CYP2D6 (Homo sapiens, UniProt P10635); conditions: in vitro metabolism, various species including human
T2 sequence (P10635 whole entry): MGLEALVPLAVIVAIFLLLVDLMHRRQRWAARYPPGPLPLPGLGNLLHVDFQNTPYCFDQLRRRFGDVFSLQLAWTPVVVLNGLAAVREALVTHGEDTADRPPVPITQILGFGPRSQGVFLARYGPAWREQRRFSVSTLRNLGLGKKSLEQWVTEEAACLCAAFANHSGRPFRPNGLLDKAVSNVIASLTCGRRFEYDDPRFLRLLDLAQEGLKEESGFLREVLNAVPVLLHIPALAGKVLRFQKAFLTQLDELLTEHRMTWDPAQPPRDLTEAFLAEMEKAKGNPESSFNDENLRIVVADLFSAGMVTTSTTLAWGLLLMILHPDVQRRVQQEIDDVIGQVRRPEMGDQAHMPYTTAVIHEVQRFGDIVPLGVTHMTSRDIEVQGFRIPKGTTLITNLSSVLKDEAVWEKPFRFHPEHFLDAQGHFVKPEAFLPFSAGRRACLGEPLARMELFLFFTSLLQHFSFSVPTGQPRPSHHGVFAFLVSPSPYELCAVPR

CYP2D6 [9] = target: T2, CYP2D6; conditions: cited from earlier work
[10] = Group 1, Day 20 (combined dosing paroxetine + AVP-786), plasma, mean
[11] = Group 1, Day 20 (combined dosing paroxetine + AVP-786), plasma, median
[12] = Group 2, Day 8 (AVP-786 single treatment), plasma, mean
[13] = Group 2, Day 8 (AVP-786 single treatment), plasma, median
[14] = Group 2, Day 20 (combined dosing AVP-786 + paroxetine), plasma, mean
[15] = Group 2, Day 20 (combined dosing AVP-786 + paroxetine), plasma, median
[16] = Group 2: AVP-786-30/4.75 BID + paroxetine 20 mg once daily vs AVP-786 alone, steady state, N 14
[17] = Group 3, Day 13 (combined dosing duloxetine + AVP-786), plasma, mean
[18] = Group 3, Day 13 (combined dosing duloxetine + AVP-786), plasma, median
[19] = Group 4, Day 8 (AVP-786 single treatment), plasma, mean
[20] = Group 4, Day 8 (AVP-786 single treatment), plasma, median
[21] = Group 4, Day 13 (combined dosing AVP-786 + duloxetine), plasma, mean
[22] = Group 4, Day 13 (combined dosing AVP-786 + duloxetine), plasma, median
[23] = Group 4: AVP-786-30/4.75 BID + duloxetine 20 mg BID vs AVP-786 alone, steady state, N 11

Chain of sigma-1 (Q99720 whole entry): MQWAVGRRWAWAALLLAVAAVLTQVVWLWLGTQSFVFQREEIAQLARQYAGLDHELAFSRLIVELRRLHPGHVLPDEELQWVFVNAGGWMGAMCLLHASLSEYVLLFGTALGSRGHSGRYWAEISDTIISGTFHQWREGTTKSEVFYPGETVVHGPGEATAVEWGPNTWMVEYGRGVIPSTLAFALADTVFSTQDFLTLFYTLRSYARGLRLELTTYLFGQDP

COc1ccc2c(c1)[C@@]13CCCC[C@H]1[C@@H](C2)N(C)CC3 [DM, (+)-3-methoxy-N-methylmorphinan]
Ki [1]: 1.5 µM | Ki (sigma-1): 0.2 µM | Ki [2]: 13 µM | Ki [3]: […]

CNCC[C@H](Oc1cccc2ccccc12)c1cccs1 [Duloxetine, duloxetine, reference compound]
AUC0-12 (clinical [4]; both, human, in vivo): 194 ng·h/mL | t1/2 (clinical [4]; both, human, in vivo): 5.04 h | Cmax (clinical [4]; both, human, in vivo, Cmax): 26.1 ng/mL | Tmax (clinical [4]; both, human, in vivo, Tmax): 4 h | treatment-emergent AEs reported, subjects (healthy subjects; Groups 3 and 4, healthy subjects): 43%

Fc1ccc([C@@H]2CCNC[C@H]2COc2ccc3c(c2)OCO3)cc1 [Paroxetine, paroxetine, reference compound]
AUC(0-t) (clinical [5]; both, human, in vivo, AUC0-24 (PAR)): 452 ng·h/mL | Cmax (clinical [5]; both, human, in vivo, Cmax): 29.5 ng/mL | Tmax (clinical [5]; both, human, in vivo, Tmax): 4 h | treatment-emergent AEs reported, subjects (healthy subjects; Groups 1 and 2, healthy subjects): 50%

C=C[C@H]1C[N@]2CC[C@@H]1C[C@@H]2[C@@H](O)c1ccnc2ccc(OC)cc12 [Quinidine, quinidine]
AUC0-12 (clinical [5]; both, human, in vivo): 146 ng·h/mL | Cmax (clinical [5]; both, human, in vivo): 23.1 ng/mL | Tmax (clinical [5]; both, human, in vivo): 1.00 h | AUC0-12 (clinical [4]; both, human, in vivo): 160 ng·h/mL | Cmax (clinical [4]; both, human, in vivo): 24.9 ng/mL | Tmax (clinical [4]; both, human, in vivo): 1.00 h

[2H]C([2H])([2H])N1CCC23CCCCC2C1Cc1ccc(O)cc13 (stereo not shown) [d3-DX, d3-dextrorphan]
steady state systemic exposure relative to AVP-786 alone (clinical [5]; AVP-786 co-administered with paroxetine): approximately 75% | AUC0-12 (clinical [5]; [10]): 820 ng·h/mL | Cmax (clinical [5]; [10]): 87.2 ng/mL | Tmax (clinical [5]; [11]): 1.00 h | AUC0-12 (clinical [5]; [12]): 1142 ng·h/mL | Cmax (clinical [5]; [12]): 117 ng/mL | Tmax (clinical [5]; [13]): 3.00 h | AUC0-12 (clinical [5]; [14]): 820 ng·h/mL | Cmax (clinical [5]; [14]): 94.1 ng/mL | Tmax (clinical [5]; [15]): 0.50 h | AUC0-12 Ratio of LS Means (clinical [5]; [16]): 71.6% | Cmax Ratio of LS Means (clinical [5]; [16]): 77.1% | AUC0-12 (clinical [4]; [17]): 1295 ng·h/mL | Cmax (clinical [4]; [17]): 128 ng/mL | t1/2 (clinical [4]; [17]): 21.7 h | Tmax (clinical [4]; [18]): 3.00 h | AUC0-12 (clinical [4]; [19]): 1267 ng·h/mL | Cmax (clinical [4]; [19]): 127 ng/mL | Tmax (clinical [4]; [20]): 3.00 h | AUC0-12 (clinical [4]; [21]): 1224 ng·h/mL | Cmax (clinical [4]; [21]): 121 ng/mL | t1/2 (clinical [4]; [21]): 20.0 h | Tmax (clinical [4]; [22]): 3.00 h | AUC0-12 Ratio of LS Means (clinical [4]; [23]): 97.6% | Cmax Ratio of LS Means (clinical [4]; [23]): 96.3%

[2H]C([2H])([2H])Oc1ccc2c(c1)[C@]13CCCC[C@@H]1[C@H](C2)N(C([2H])([2H])[2H])CC3 [d6-DM]
AUC0-12 (clinical [5]; [10]): 943 ng·h/mL | Cmax (clinical [5]; [10]): 93.5 ng/mL | t1/2 (clinical [5]; [10]): […] | Tmax (clinical [5]; [11]): 2.00 h | AUC0-12 (clinical [5]; [12]): 467 ng·h/mL | Cmax (clinical [5]; [12]): 54.6 ng/mL | Tmax (clinical [5]; [13]): 3.00 h | AUC0-12 (clinical [5]; [14]): […] | Cmax (clinical [5]; [14]): 100 ng/mL | t1/2 (clinical [5]; [14]): 17.3 h | Tmax (clinical [5]; [15]): 3.00 h | AUC0-12 (clinical [4]; [17]): 692 ng·h/mL | Cmax (clinical [4]; [17]): 72.7 ng/mL | t1/2 (clinical [4]; [17]): 13.3 h | Tmax (clinical [4]; [18]): […] | AUC0-12 (clinical [4]; [19]): 540 ng·h/mL | Cmax (clinical [4]; [19]): 59.0 ng/mL | Tmax (clinical [4]; [20]): 3.00 h | AUC0-12 (clinical [4]; [21]): 605 ng·h/mL | Cmax (clinical [4]; [21]): […] | t1/2 (clinical [4]; [21]): 12.6 h | Tmax (clinical [4]; [22]): 3.00 h | dose-limiting toxicities (DLTs) of d6-DM and DM [6]: comparable | effect of deuteration on pharmacology [7]: […] | metabolites identified compared to DM (CYP2D6 [8]): no unique metabolites

CC(CCc1ccccc1)NCC(O)c1ccc(O)c(C(N)=O)c1 (stereo not shown) [labetalol]
Ki (CYP2D6 [9]): ≤ 50 µM

Cc1cccc(C)c1OCC(C)N (stereo not shown) [mexiletine]
Ki (CYP2D6 [9]): ≤ 50 µM

CNCCC=C1c2ccccc2CCc2ccccc21 [nortriptyline]
Ki (CYP2D6 [9]): ≤ 50 µM

C=CCOc1ccccc1OCC(O)CNC(C)C (stereo not shown) [oxprenolol]
Ki (CYP2D6 [9]): ≤ 50 µM
